Laboratory results reported in patent publication US8853452B2, “Compounds, their syntheses, compositions, and methods to treat cancer” (The Administrators of the Tulane Educational Fund, priority 2009, dated 2014).
Where two headings read alike, the source gives them in different places.

Assays:
[1] = system: MCF10A (normal breast epithelial) cells; assay: Proliferation assay in normal breast epithelial cells; format: cell-based; conditions: for effect on normal breast epithelial proliferation: MCF10A, even at 100 μM, 24 h
Protocol: MCF10A cells were treated with varying concentrations of drug (0.1-100 μM) for 24 h. The values are the mean±SE of four independent experiments.
The selectivity of compound II-3 and C8-ceramide to inhibit cell growth of cancer cells was determined by performing proliferation assays using MCF10A (normal breast epithelial) cells (FIG. 18).

[2] = system: MCF-7 cells; assay: Apoptosis ELISA assay (Cell Death Detection ELISA, Roche); format: cell-based, Human; conditions: double the IC50 concentration (ceramide 8.3 μM, II-3 9.4 μM)
Protocol: The induction of apoptosis by compounds was assayed using the nucleosome ELISA kit (Roche). The kit quantified formation of cytoplasmic histone-associated oligonucleosome DNA fragments resulting from apoptosis. […] The induction of apoptosis was determined by the amount of nucleosomes in the cytoplasm per the manufacturer's protocol. The values are the mean±SE of three independent experiments.
The ability of compound II-3 to induce apoptosis in MCF-7 cells was tested. Using a Cell Death Detection ELISA (Roche) to assess apoptosis, IC50 was measured for compound II-3 and C8-ceramide.

[3] = system: MCF-7TN-R cells; assay: Cellular sphingolipid species by lipidomics analysis; format: cell-based, Human; conditions: 10 μM, 24 h
Protocol: (§1) (A) MCF-7, (B) MDA-MB-231, and (C) MCF-7TN-R cells were treated with ceramide (10 μM) and II-3 (10 μM) for 24 h. The values are the mean±SE of two independent experiments. S2 Endogenous lipid levels were quantified by mass spectrometry (Lipidomics Core, Medical University of South Carolina) according to published methods. Briefly, cells were collected, fortified with internal standards and extracted with ethyl acetate/isopropyl alcohol. ESI/MS/MS analyses of sphingoid bases, sphingoid base 1-phosphates, ceramides, and sphingomyelins were performed on a Thermo Finnigan TSQ 7000 triple quadrupole mass spectrometer.
(§2) The effect of compound II-3 on endogenous sphingolipid levels was compared to C8-ceramide using Lipidomics Analysis (FIG. 19-21). Dihydrosphingosine is elevated following compound II-3 treatment, with almost a 50 fold increase in MCF-7TN-R cells. Sphingosine-1-phosphate, the proliferative metabolite of ceramide, decreased in all three cell lines. C8-ceramide had the opposite effect and increased sphingosine-1-phosphate levels.

[4] = system: MCF-7 cells; assay: as above; format: cell-based, Human; conditions: 10 μM, 24 h
Protocol: as §1, §2

[5] = system: MDA-MB-231 cells; assay: as above; format: cell-based, Human; conditions: 10 μM, 24 h
Protocol: as §1, §2

[6] = system: MCF-7TN-R cells; assay: Clonogenic survival assay; format: cell-based, Human; conditions: Table 2, 0.1 μM-20 μM for 10 days, read-out: MCF-7-TNR (IC50), clonogenic survival
Protocol: (§3) Human cancer cell lines derived from breast, MCF-7, endocrine-resistant MDA-MB-231, and chemoresistant MCF-7TN-R were cultured in 75 cm^2 culture flasks in DMEM (Invitrogen, Co.) supplemented with 10% FBS (Life Technologies, Inc., Gaithersburg, Md.), basic minimum MEM essential (50×, Invitrogen Co.) and MEM non-essential (100×, Invitrogen, Co.) amino acids, sodium pyruvate (100× Invitrogen Co.), antimicotic-antibiotic (10,000 U/mL penicillin G sodium; 10,000 μg/mL streptomycin sulphate; 25 μg/mL amphotericin B as Fungizone®), and human recombinant insulin (4 mg/mL Invitrogen Co). Culture flasks were maintained in a tissue culture incubator in a humidified atmosphere of 5% CO2 and 95% air at 37° C.
(§4) MCF-7, MDA-MB-231, or MCF-7TN-R cells were plated in 6-well plates at 1000 cells per well. Twenty-four hours later, cells were treated with varying concentrations of the compound and then monitored microscopically for colony growth. Ten days later the cells were fixed with 3% glutaraldehyde. Following fixation for 15 min, the plates were washed and stained with a 0.4% solution of crystal violet in 20% methanol for 30 min, washed with PBS, and air-dried. Colonies of 30 cells were counted as positive. Results are normalized to percent clonogenic survival from untreated control cells. Statistical analysis of IC50 values were calculated from concentration-response curves using GraphPad Prism 5.0 (Graphpad Software, San Diego, Calif.), using with the equation: Y=Bottom+(Top−bottom)/1+10 Log EC50−X.
(§5) Compounds II-1, II-2, II-3, II-4, II-5, and II-6 were compared for their inhibitory effect on breast cancer clonogenic survival. Cells were treated with varying concentration of compound, ranging from 0.1 μM-20 μM for 10 days. […] At endpoint, cell colonies were fixed, stained and recorded as percent vehicle control.

[7] = system: MCF-7 cells; assay: Clonogenic survival assay; format: cell-based, Human; conditions: Table 2, 0.1 μM-20 μM for 10 days, read-out: MCF-7 (IC50), clonogenic survival
Protocol: as §3, §4, §5

[8] = system: MDA-MB-231 cells; assay: Clonogenic survival assay; format: cell-based, Human; conditions: Table 2, 0.1 μM-20 μM for 10 days, read-out: MDA-MB-231 (IC50), clonogenic survival
Protocol: as §3, §4, §5

[9] = system: MCF-7TN-R cells; assay: Proliferation assay; format: cell-based; conditions: Homo sapiens; FIG. 17; read-out: anti-proliferative IC50, MCF-7TN-R
Protocol: (§6) The ability of compound II-3 to block proliferation as an anti-survival mechanism in addition to apoptosis was determined by measuring anti-proliferative effects.
Nineteen compounds were synthesized using fifteen benzaldehydes as starting material. […] These were tested as potential anti-proliferative agents in MCF-7TN-R cells, and the structure-activity relationships were studied using several parameters. […] In compounds containing a methyl group, a significant increase of the PAC (C) in o-substituted compound was detected, which may account for the increased anti-proliferation activity. Ortho-substituted analogs with electron withdrawing groups by induction can have beneficial effects, and PAC (C) can be a useful predictor of the structural property of the molecule.

[10] = system: MCF-7 cell line; assay: Proliferation assay; format: cell-based; conditions: Homo sapiens, MCF7; FIG. 15; read-out: anti-proliferative IC50, MCF-7
Protocol: as §6

[11] = system: MDA-MB-231 cell line; assay: Proliferation assay; format: cell-based; conditions: Homo sapiens, FIG. 16, read-out: anti-proliferative IC50, MDA-MB-231
Protocol: as §6

| IC50 [9] [µM] | IC50 [10] [µM] | IC50 [11] [µM] | Compound | 100 μM (little effect in MCF10A) as fold of the IC50 value in chemoresistant cells ([1]; MCF10A versus chemoresistant cells) | effect on normal breast epithelial proliferation [1] | fold induction at 9.4 µM ([2]; Homo sapiens, MCF7, 24 hours) | Dihydrosphingosine fold increase [3] [fold] | Sphingosine-1-phosphate level [3] | Sphingosine-1-phosphate level [4] | Sphingosine-1-phosphate level [5] | IC50 ([6]; Homo sapiens, 240 h) [µM] | IC50 [6] [µM] | IC50 ([7]; Homo sapiens, MCF7, 240 h) [µM] | IC50 [7] [µM] | IC50 ([8]; Homo sapiens, MDA-MB-231, 240 h) [µM] | IC50 [8] [µM] | fold induction in apoptosis ([2]; 24 hours) [fold] |
| --- | --- | --- | --- | --- | --- | --- | --- | --- | --- | --- | --- | --- | --- | --- | --- | --- | --- |
| 1.2 | 4.5 | 1.8 | CCCCCCCCCCCCCCNC(=O)[C@H](CO)N=Cc1ccccc1 [II-3, (S)-2-(benzylideneamino)-3-hydroxy-N-tetradecylpropanamide] | greater than 50 fold | little effect | 5.4 | ~50 | decreased | decreased | decreased | 7.67 | 7.7 | 4.69 | 4.7 | 2.35 | 2.4 | – |
| – | – | – | CCCCCCCCCCCCC/C=C/[C@@H](O)[C@H](CO)NC(=O)CCCCCCC [Compound C8-Cer, D-erythro N-octanoyl sphingosine, reference compound] | – | little effect | – | – | increased | increased | increased | – | 8.6 | – | 4.2 | – | 3 | 5.0 |
